Four compounds from article PMC10319141, “Imidazoquinolines with improved pharmacokinetic properties induce a high IFNα to TNFα ratio in vitro and in vivo” (Frontiers in Immunology, 2023) can be followed below.

Structures are written as SMILES. Like-named read-outs stand apart in the source and are kept apart here.

For one series, the system named is Human peripheral blood. Briefly: Full blood stimulation assay (TNFα/IFNα by ELISA). It counts as cell-based. The note with it: 6 h, 8 donors, normalized to maximal concentration per donor; in words. The procedure:
Human peripheral blood of healthy donors was diluted in an equal volume of culture medium as described in 3.2, blood was treated with test compounds or controls at various concentrations and incubated at 37°C, 5% CO2 for 6 h. Cells were pelleted by centrifugation at 400xg for 5 min and supernatants were collected.
(§1) Cytokine concentrations in samples were quantified either by ELISA (hTNFα, R&D Systems; hIFNα, Mabtech) or cytometric bead arrays (CBA, LegendPlex mouse anti-virus response panel, BioLegend) according to the manufacturer’s instructions. CBAs were acquired on a ZE5 Cell Analyzer (Bio-Rad) and analyzed using the LegendPlex Software Suite (Qognit/BioLegend). Absorbance of ELISA-samples was quantified using a Versamax microplate reader (Molecular Devices).

Series [1] concerns TNFα and IFNα in peripheral plasma. The series can be described thus: Cytokine AUC in peripheral plasma after activity-adjusted s.c. doses (Figure 5C, Table 2 bottom). The class given is in vivo, C57BL/6 mice. The note with it: for IFNα AUC / TNFα AUC: 8 h period; for IFNα AUC / TNFα AUC / INFα AUC / TNFα AUC: doses adjusted to activity (bottom section); for dose ratio, times the molar dose of RSQ leading to comparable amounts of IFNα / dose ratio, times the molar dose of RSQ necessary to induce similar levels of TNFα: comparison of AUC, s.c. How it is done:
as §1
(§2) Formulation. Test compounds were prepared for application in either 1% Tween 80, 9% PEG400 in ultrapure water (Biowest) (i.v., i.p., p.o. application) or 5 mM citric acid in 0.9% saline (Braun) (subcutaneous application). If compounds were administered subcutaneously, injections were carried out into the neck crease.
(§3) Collection of Samples. Mice were bled from the tail vein at various timepoints. Heparin (Sigma) or K2-EDTA (Sigma) was added to blood samples to a final […] concentration of 10-15 Unit or 5 mM. Plasma was generated by centrifugation at 6800xg for 8 min at 4°C and stored at -80°C until analyzed by ELISA or CBA. Animals were sacrificed after the indicated time points by CO2 inhalation. Heart blood and organs for compound quantification by HPLC-MS/MS were collected post mortem and stored at –20°C until extracted as described above.
Compound concentration in (A) peripheral blood collected via tail bleeding before, 15, 30 60, 120, 240, 360 and 480 min after s.c. compound application and (B) organs collected after 8 h was assessed via HPLC-MS/MS. (A, B) Data are presented as mean ± SD. (C) Levels of TNFα and IFNα as well as (D) IL6, CXCL1, CCL2, IFNβ, IFNγ and IL10 in tail plasma over time were determined via cytometric bead array. Area under the curve (AUC) of each cytokine was plotted against compound concentration. Data are represented as mean ± 95% confidence interval.

Series [2] in a line: Compound concentrations in organs and blood after 3, 6, 12 µmol/kg s.c. (Figure 4A). It counts as in vivo, C57BL/6 mice. The note with it: female, C57BL/6, mouse, sc; for concentration at 8 h: 8 h after treatment; for concentration at 1 h: whole blood (peripheral, tail), 1 h post application, whole blood. The procedure: (§4) All samples were extracted with 3 or 6 volumes acetonitrile containing terbuthylazine as an internal standard (ACN) relative to either sample weight or volume. Liquid samples (plasma, culture medium, cell suspensions in stability experiments) were diluted in either 3 (culture medium, cell suspensions) or 6 (plasma) volumes ACN, pellet and blood samples were extracted by addition of ACN followed by sonication for 5 min. Organ samples were digested with 0.5 µg/mg Proteinase K (Genaxxon) for 1 h at 50°C before being homogenized using a Fastprep FP-24 5G instrument (MP-Biomedicals). Homogenates were diluted with 6 volumes ACN and homogenized again. All extracts were cleared by centrifugation at ~20.000xg for 10 min at 4°C.
(§5) Quantification of analytes was performed on an Agilent 1260/1290 Infinity system fitted with an Agilent C18 Poroshell 120 column (4.6 x 50 mm, 2.7 µm) coupled to a triple quadrupole Sciex API 4000 MS/MS detector. The mobile phase was composed of water containing 0.1% formic acid (eluent A) and acetonitrile containing 0.1% formic acid (eluent B). Gradient used was: 5% B for 0.5 min, to 100% B in 4.5 min, 100% B for 2 min, to 5% B in 0.5 min, 5% for 2.5 min. MS detection parameters are listed in SI Table S1 .
as §2, §3
(A) Organs were sampled 8 h after treatment and compound concentration was determined via HPLC-MS/MS. Data are presented as mean ± SD. (B) Cytokine levels in tail plasma over time were determined via cytometric bead array. At each sampling timepoint the plasma of mice in one treatment group was pooled.

Series [3] is described as follows: Cassette bioavailability i.v., i.p., p.o. (blood and organ concentrations by HPLC-MS/MS). It counts as in vivo, C57BL/6 mice. The note with it: for Cmax / concentration at 1440 min: female, C57BL/6, mouse; for Cmax: 15 min after application. The procedure:
as §4, §5
Experimental Animals. All animal experiments were carried out in accordance with German law (35/9183.81-7/SYN 06/20). Mice, 8-18 weeks old, were purchased from Janvier Laboratories and maintained in a specific-pathogen-free animal facility with chow and water ad libitum. After arrival mice acclimated for a minimum of 7 days.
as §2, §3
Figure 3 Stability and bioavailability of macrolide conjugates. (A) Stability of A1-mac and A2-mac was measured in human blood, U937 monocytes and RPMI medium over 24 h. […] (B) Peripheral blood was collected 15, 30 60, 120, 180, 240, 360 and 1440 min after compound administration. (C) Organs were sampled 1440 min after compound administration. (A–C) Data are presented as mean ± SD.

Where [4] appears, read: kidney, read-out: concentration in kidney.
Setting [5] is: liver, read-out: concentration in liver.
[6] abbreviates: whole blood (tail vein), iv, i.v. 0.5 mg/kg, tail vein blood.
The mark [7] stands for this setting: kidney, ip, i.p. 2 mg/kg, organs sampled 1440 min after administration, read-out: concentration in kidney.
Where [8] appears, read: liver, ip, i.p. 2 mg/kg, organs sampled 1440 min after administration, read-out: concentration in liver.

Turning to `CCCCc1nc2c(N)nc3ccccc3c2n1CCC1CCNCC1` [A1], the “relative IFNα induction in human blood” value in the series with Human peripheral blood was “robust and similar”. The “IFNα AUC” value worked out at 70000 pg·min/mL in series [1] (1 µmol/kg s.c.), 490000 pg·min/mL in series [1] (3 µmol/kg s.c.), 1.1e+06 pg·min/mL in series [1] (6 µmol/kg s.c.) and 1.9e+06 pg·min/mL in series [1] (12 µmol/kg s.c.). Besides, the “TNFα AUC” value in series [1] (1 µmol/kg s.c.) stood at 9700 pg·min/mL; in series [1] (3 µmol/kg s.c.), 11000 pg·min/mL; in series [1] (6 µmol/kg s.c.) it was 20000 pg·min/mL; in series [1] (12 µmol/kg s.c.) it was 44000 pg·min/mL. In addition, the “INFα AUC / TNFα AUC” value was found to be 7 in series [1] (1 µmol/kg s.c.), 44 in series [1] (3 µmol/kg s.c.), 58 in series [1] (6 µmol/kg s.c.) and 44 in series [1] (12 µmol/kg s.c.). The “dose ratio, times the molar dose of RSQ leading to comparable amounts of IFNα” value in series [1] was 6-10 times. Also, the “dose ratio, times the molar dose of RSQ necessary to induce similar levels of TNFα” value in series [1] is recorded as 30-40 times. In addition, the concentration at 8 h in series [2] (setting [4]) was found to be 636 nM; in series [2] (setting [5]), 173 nM; in series [2] (lung, read-out: concentration in lung), 868 nM. In series [2], this compound came in with a concentration at 1 h of 1560 nM.
For the compound `CCOCc1nc2c(N)nc3ccccc3c2n1CC(C)(C)O` [RSQ, Resiquimod, reference compound], the “TNFα concentrations in supernatants of human blood” value in the series with Human peripheral blood is given as “highest TNFα concentrations”. The Cmax in series [3] (setting [6]) turned out to be 854 nM; in series [3] (whole blood, ip, i.p. 2 mg/kg) it was 123 nM; in series [3] (whole blood, po, p.o. 2 mg/kg), 41 nM. Moreover, the concentration in liver entry in series [3] (i.p. 2 mg/kg, organs sampled 1440 min after administration) is listed as “< LOD”. For the same compound, the “IFNα AUC” value in series [1] (0.1 µmol/kg s.c.) was determined as 110000 pg·min/mL; in series [1] (0.3 µmol/kg s.c.), 560000 pg·min/mL; in series [1] (1 µmol/kg s.c.), 1.1e+06 pg·min/mL; in series [1] (3 µmol/kg s.c.), 970000 pg·min/mL. Further, the “TNFα AUC” value in series [1] (0.1 µmol/kg s.c.) is 17000 pg·min/mL; in series [1] (0.3 µmol/kg s.c.) it was 50000 pg·min/mL; in series [1] (1 µmol/kg s.c.) it was 120000 pg·min/mL; in series [1] (3 µmol/kg s.c.) it was 150000 pg·min/mL. Also, the concentration at 1 h in series [2] is 175 nM.
As to `CCCCc1nc2c(N)nc3ccccc3c2n1CC1CCN(C(=O)CN(C)CC(=O)N(C)[C@H]2C[C@@H](C)O[C@@H](O[C@@H]3[C@@H](C)[C@H](O[C@H]4C[C@@](C)(OC)[C@@H](O)[C@H](C)O4)[C@@H](C)C(=O)O[C@H](CC)[C@@](C)(O)[C@H](O)[C@@H](C)N(C)C[C@H](C)C[C@@]3(C)O)[C@@H]2O)CC1` [A2-mac], the concentration at 1440 min is 449 nM in series [3] (setting [7]) and 2520 nM in series [3] (setting [8]). For the same compound, the peak concentration (Cmax) in series [3] (setting [6]) was 352 nM; in series [3] (whole blood, ip, i.p. 2 mg/kg) it was 138 nM; in series [3] (whole blood, po, p.o. 2 mg/kg) it was 22 nM.
Take `CCCCc1nc2c(N)nc3ccccc3c2n1CCC1CCN(C(=O)CN(C)CC(=O)N(C)C2CC(C)OC(OC3C(C)C(OC4CC(C)(OC)C(O)C(C)O4)C(C)C(=O)OC(CC)C(C)(O)C(O)C(C)N(C)CC(C)CC3(C)O)C2O)CC1` (stereo not shown) [A1-mac]: the “relative IFNα induction in human blood” value in the series on Human peripheral blood is “robust and similar”. Also, the concentration at 1440 min in series [3] (setting [7]) was 586 nM; in series [3] (setting [8]), 3390 nM. Also, the highest concentration (Cmax) in series [3] (setting [6]) stood at 392 nM; in series [3] (whole blood, ip, i.p. 2 mg/kg), 299 nM; in series [3] (whole blood, po, p.o. 2 mg/kg) it was 28 nM. Moreover, the “IFNα AUC” value came to 33000 pg·min/mL in series [1] (1 µmol/kg s.c.), 300000 pg·min/mL in series [1] (3 µmol/kg s.c.), 1.6e+06 pg·min/mL in series [1] (6 µmol/kg s.c.) and 1.9e+06 pg·min/mL in series [1] (12 µmol/kg s.c.). Moreover, the “TNFα AUC” value in series [1] (1 µmol/kg s.c.) stood at 7200 pg·min/mL; in series [1] (3 µmol/kg s.c.), 14000 pg·min/mL; in series [1] (6 µmol/kg s.c.), 38000 pg·min/mL; in series [1] (12 µmol/kg s.c.), 65000 pg·min/mL. In addition, the “INFα AUC / TNFα AUC” value in series [1] (1 µmol/kg s.c.) was determined as 5; in series [1] (3 µmol/kg s.c.), 22; in series [1] (6 µmol/kg s.c.), 42; in series [1] (12 µmol/kg s.c.), 30. Besides, the “dose ratio, times the molar dose of RSQ leading to comparable amounts of IFNα” value in series [1] is 6-10 times. Further, the “dose ratio, times the molar dose of RSQ necessary to induce similar levels of TNFα” value in series [1] is given as 30-40 times. Further, the figures for the concentration at 8 h in series [2] (setting [4]) and in series [2] (setting [5]) were 5480 nM and 5100 nM, respectively. In series [2], this compound came in with a concentration at 1 h of 696 nM.
